Tests used:
[1] = Downregulation of HDAC9 protein expression in human MDA-MB-231 cells assessed as fold change at 0.1 uM incubated for 24 hrs by immunoblotting analysis (reference value: 1); type: functional
[2] = Toxicity in athymic nude BALB/c mouse xenografted with human MDA-MB-231 cells assessed as effect on BUN level in serum at 3 mg/kg, ip administered 5 times a week for 7 weeks; type: organism-based; conditions: in vivo, 1176 h
[3] = Effect on HDAC5 protein expression in human MDA-MB-231 cells assessed as fold change at 0.05 uM incubated for 24 hrs by immunoblotting analysis (reference value: 1); type: functional
[4] = Downregulation of HDAC5 protein expression in human MDA-MB-231 cells assessed as fold change at 0.1 uM incubated for 24 hrs by immunoblotting analysis (reference value: 1); type: functional
[5] = Downregulation of HDAC8 protein expression in human NCI-H1975 cells assessed as fold change at 0.1 uM incubated for 24 hrs by immunoblotting analysis (reference value: 1); type: functional
[6] = Downregulation of HDAC9 protein expression in human NCI-H1975 cells assessed as fold change at 0.1 uM incubated for 24 hrs by immunoblotting analysis (reference value: 1); type: functional
[7] = Upregulation of acetylated H4 protein expression in human NCI-H1975 cells assessed as fold change at 0.05 uM incubated for 24 hrs by immunoblotting analysis (reference value: 1); type: functional
[8] = Effect on HDAC5 protein expression in human NCI-H1975 cells assessed as fold change at 0.1 uM incubated for 24 hrs by immunoblotting analysis (reference value: 1); type: functional
[9] = Downregulation of HDAC10 protein expression in human MDA-MB-231 cells assessed as fold change at 0.05 uM incubated for 24 hrs by immunoblotting analysis (reference value: 1); type: functional
[10] = target: T1, Polyamine deacetylase HDAC10 (Homo sapiens, UniProt Q969S8); test: Inhibition of recombinant human HDAC10 using acetylated luminogenic substrate incubated for 10 mins by ultra-glo recombinant firefly luciferase based luminescence assay
T1 sequence (Q969S8 whole entry): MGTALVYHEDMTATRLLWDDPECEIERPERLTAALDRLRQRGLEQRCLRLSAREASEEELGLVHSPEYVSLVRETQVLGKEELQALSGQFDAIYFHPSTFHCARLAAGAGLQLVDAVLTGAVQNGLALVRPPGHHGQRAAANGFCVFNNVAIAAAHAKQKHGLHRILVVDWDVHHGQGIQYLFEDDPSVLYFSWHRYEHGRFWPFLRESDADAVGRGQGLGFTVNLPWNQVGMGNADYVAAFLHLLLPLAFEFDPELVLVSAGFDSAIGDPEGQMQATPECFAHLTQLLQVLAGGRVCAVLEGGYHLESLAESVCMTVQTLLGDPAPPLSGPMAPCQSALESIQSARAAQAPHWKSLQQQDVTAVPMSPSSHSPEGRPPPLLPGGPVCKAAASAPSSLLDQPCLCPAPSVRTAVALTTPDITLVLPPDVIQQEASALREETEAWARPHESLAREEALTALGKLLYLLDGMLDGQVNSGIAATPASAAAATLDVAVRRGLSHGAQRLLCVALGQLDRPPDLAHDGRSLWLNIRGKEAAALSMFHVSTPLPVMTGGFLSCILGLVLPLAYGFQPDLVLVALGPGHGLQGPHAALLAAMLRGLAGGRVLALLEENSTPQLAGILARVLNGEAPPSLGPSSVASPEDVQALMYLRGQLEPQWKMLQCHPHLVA

Histone deacetylase 11 = target: T2, Histone deacetylase 11 (Homo sapiens, UniProt Q96DB2); test: Inhibition of recombinant human HDAC11 using acetylated luminogenic substrate incubated for 10 mins by ultra-glo recombinant firefly luciferase based luminescence assay
T2 sequence (Q96DB2 whole entry): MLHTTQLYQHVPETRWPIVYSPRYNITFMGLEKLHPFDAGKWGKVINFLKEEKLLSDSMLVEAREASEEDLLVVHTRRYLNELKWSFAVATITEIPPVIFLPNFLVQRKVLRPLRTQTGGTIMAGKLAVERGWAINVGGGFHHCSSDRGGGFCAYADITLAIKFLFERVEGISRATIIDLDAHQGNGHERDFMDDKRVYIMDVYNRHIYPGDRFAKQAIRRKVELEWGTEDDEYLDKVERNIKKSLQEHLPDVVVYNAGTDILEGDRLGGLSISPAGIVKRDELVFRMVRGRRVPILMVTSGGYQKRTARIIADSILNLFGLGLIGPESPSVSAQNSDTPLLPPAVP

[11] = Downregulation of HDAC6 protein expression in human MDA-MB-231 cells assessed as fold change at 0.05 uM incubated for 24 hrs by immunoblotting analysis (reference value: 1); type: functional
Histone deacetylase 2 = Histone deacetylase 2 (Homo sapiens, UniProt Q92769); test: Inhibition of recombinant human HDAC2 using acetylated luminogenic substrate incubated for 10 mins by ultra-glo recombinant firefly luciferase based luminescence assay
Sequence of Histone deacetylase 2 (Q92769 whole entry): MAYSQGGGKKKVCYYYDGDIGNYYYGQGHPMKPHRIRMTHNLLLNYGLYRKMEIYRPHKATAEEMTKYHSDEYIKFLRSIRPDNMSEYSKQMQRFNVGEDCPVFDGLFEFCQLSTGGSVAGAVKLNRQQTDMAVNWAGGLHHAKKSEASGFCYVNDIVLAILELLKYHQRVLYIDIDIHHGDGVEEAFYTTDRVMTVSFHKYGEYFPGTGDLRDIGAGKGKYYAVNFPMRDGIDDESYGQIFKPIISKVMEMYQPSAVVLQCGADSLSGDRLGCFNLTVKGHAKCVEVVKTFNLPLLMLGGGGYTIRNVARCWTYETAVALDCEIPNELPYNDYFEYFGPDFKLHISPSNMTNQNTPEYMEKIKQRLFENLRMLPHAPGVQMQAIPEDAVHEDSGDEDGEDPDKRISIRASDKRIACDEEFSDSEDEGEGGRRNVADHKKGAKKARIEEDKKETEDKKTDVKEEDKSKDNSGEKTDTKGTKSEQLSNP

[12] = Toxicity in athymic nude BALB/c mouse xenografted with human NCI-H1975 cells assessed as effect on BUN level at 6 mg/kg, ip administered 5 times a week for 3 weeks and measured on day 22; type: organism-based; conditions: in vivo, 528 h, time 22 day
[13] = Downregulation of HDAC7 protein expression in human MDA-MB-231 cells assessed as fold change at 0.1 uM incubated for 24 hrs by immunoblotting analysis (reference value: 1); type: functional
[14] = Downregulation of HDAC6 protein expression in human NCI-H1975 cells assessed as fold change at 0.05 uM incubated for 24 hrs by immunoblotting analysis (reference value: 1); type: functional
[15] = Toxicity in athymic nude BALB/c mouse xenografted with human NCI-H1975 cells assessed as effect on ALT level at 6 mg/kg, ip administered 5 times a week for 3 weeks and measured on day 22; type: organism-based; conditions: in vivo, 528 h, time 22 day
Histone deacetylase 3 = Histone deacetylase 3 (Homo sapiens, UniProt O15379); test: Inhibition of recombinant human HDAC3 using acetylated luminogenic substrate incubated for 10 mins by ultra-glo recombinant firefly luciferase based luminescence assay
Sequence of Histone deacetylase 3 (O15379 whole entry): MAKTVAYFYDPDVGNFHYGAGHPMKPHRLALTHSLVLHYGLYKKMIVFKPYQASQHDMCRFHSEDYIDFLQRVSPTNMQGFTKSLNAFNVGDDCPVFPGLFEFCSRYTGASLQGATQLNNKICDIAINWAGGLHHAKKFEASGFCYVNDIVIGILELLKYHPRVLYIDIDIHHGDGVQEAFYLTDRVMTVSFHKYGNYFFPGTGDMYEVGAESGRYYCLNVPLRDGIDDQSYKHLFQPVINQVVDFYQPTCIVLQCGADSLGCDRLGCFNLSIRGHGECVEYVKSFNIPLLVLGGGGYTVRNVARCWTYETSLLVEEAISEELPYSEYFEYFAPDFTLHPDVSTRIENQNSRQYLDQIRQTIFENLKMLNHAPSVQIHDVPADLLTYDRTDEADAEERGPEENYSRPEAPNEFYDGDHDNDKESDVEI

Histone deacetylase 8 = target: T3, Histone deacetylase 8 (Homo sapiens, UniProt Q9BY41); test: Inhibition of recombinant human HDAC8 using acetylated luminogenic substrate incubated for 10 mins by ultra-glo recombinant firefly luciferase based luminescence assay
T3 sequence (Q9BY41 whole entry): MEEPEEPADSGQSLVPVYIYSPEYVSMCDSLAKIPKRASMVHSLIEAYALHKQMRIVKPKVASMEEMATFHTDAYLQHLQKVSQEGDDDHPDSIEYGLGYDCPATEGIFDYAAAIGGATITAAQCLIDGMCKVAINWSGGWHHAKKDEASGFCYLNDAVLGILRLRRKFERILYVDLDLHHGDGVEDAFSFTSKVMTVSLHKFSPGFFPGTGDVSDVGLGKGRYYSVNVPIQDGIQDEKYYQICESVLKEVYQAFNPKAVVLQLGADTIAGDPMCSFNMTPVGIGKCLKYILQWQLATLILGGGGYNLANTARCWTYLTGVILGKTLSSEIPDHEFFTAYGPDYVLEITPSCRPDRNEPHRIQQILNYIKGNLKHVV

[16] = Downregulation of HDAC4 protein expression in human NCI-H1975 cells assessed as fold change at 0.1 uM incubated for 24 hrs by immunoblotting analysis (reference value: 1); type: functional

- IC50 [10]: 18.9 nM
- IC50 (Histone deacetylase 11): 49.9 nM
- IC50 (Histone deacetylase 2): 11.5 nM
- IC50 (Histone deacetylase 3): 8.8 nM
- IC50 (Histone deacetylase 8): 138 nM
Compound: CCOc1ccc(-c2nc(C(=O)NCc3ccc(C(=O)NO)cc3)c3[nH]c(=O)n(-c4cccnc4OC)c3n2)cn1
- fold change (FC) [1]: 0.94
- Activity [2]: Non-Toxic
- fold change (FC) [3]: 1.16
- fold change (FC) [4]: 0.99
- fold change (FC) [5]: 0.46
- fold change (FC) [6]: 0.33
- fold change (FC) [7]: 1.7
- fold change (FC) [8]: 1.53
- fold change (FC) [9]: 0.89
- fold change (FC) [11]: 0.47
- Activity [12]: Non-Toxic
- fold change (FC) [13]: 0.58
- fold change (FC) [14]: 0.6
- Activity [15]: Non-Toxic
- fold change (FC) [16]: 0.6

Reference: ChEMBL document CHEMBL5518174 (Eur J Med Chem, 2024)
